Literature values as cited in patent US4758566A, “2-(1-piperazinyl)-4-substituted phenylquinoline derivatives, processes for the preparation thereof, and pharmaceutical composition containing the same” (Dainippon Pharmaceutical Co., Ltd., priority 1984, dated 1988).

What was measured:
[1] = U.S. Pat. Nos. 3,542,785 and 3,668,207; cited from earlier work
[2] = U.S. Pat. Nos. 3,542,785 and 3,668,207; cited from earlier work; remark: listed apart in the source

CN1CCN(c2cc(-c3ccccc3)c3cc(Cl)ccc3n2)CC1 [6-chloro-2-(4-methyl-1-piperazinyl)-4-phenylquinoline]
antiinflammatory activity [1]: have antiinflammatory and diuretic activities | diuretic activity [2]: have antiinflammatory and diuretic activities
